These results are taken from patent US20170339955A1, “Substituted N-(tetrazol-5-yl)- and N-(triazol-5-yl)arylcarboxamide compounds and their use as herbicides” (BASF SE, priority 2012, published 2017).

What all share (format): in vivo
Experiment [1] relates to Amaranthus retroflexus L. (pigweed). The experiment can be described thus: Greenhouse post-emergence treatment of Amaranthus retroflexus L. (pigweed). The conditions noted are these: application rate 1000 g/ha, scale 0 (no damage) to 100 (complete destruction). An excerpt:
(§1) The culture containers used were plastic flowerpots containing loamy sand with approximately 3.0% of humus as the substrate. The seeds of the test plants were sown separately for each species.
(§2) For the post-emergence treatment, the test plants were first grown to a height of 3 to 15 cm, depending on the plant habit, and only then treated with the active ingredients which had been suspended or emulsified in water. For this purpose, the test plants were either sown directly and grown in the same containers, or they were first grown separately as seedlings and transplanted into the test containers a few days prior to treatment.
(§3) Depending on the species, the plants were kept at 10-25° C. or 20-35° C. The test period extended over 2 to 4 weeks. During this time, the plants were tended, and their response to the individual treatments was evaluated.
(§4) Evaluation was carried out using a scale from 0 to 100. 100 means no emergence of the plants, or complete destruction of at least the aerial moieties, and 0 means no damage, or normal course of growth. A good herbicidal activity is given at values of at least 70 and a very good herbicidal activity is given at values of at least 85.

For experiment [2] the test system is unchanged. As to the kind of experiment: Greenhouse pre-emergence treatment of Amaranthus retroflexus L. (pigweed). To be noted: application rate 1000 g/ha, scale 0 (no damage) to 100 (no emergence/complete destruction).
Text: as §1
(§5) For the pre-emergence treatment, the active ingredients, which had been suspended or emulsified in water, were applied directly after sowing by means of finely distributing nozzles. The containers were irrigated gently to promote germination and growth and subsequently covered with transparent plastic hoods until the plants had rooted. This cover caused uniform germination of the test plants, unless this has been impaired by the active ingredients.
as §3, §4

The test system of experiment [3] is Abutilon theophrasti (velvetleaf). The experiment can be described thus: Greenhouse post-emergence treatment of Abutilon theophrasti (velvetleaf). The conditions noted are these: application rate 1000 g/ha, scale 0 (no damage) to 100 (complete destruction).
Text: as §1, §2, §3, §4

Experiment [4] has as its system Echinochloa crus-galli (barnyard grass). As to the kind of experiment: Greenhouse post-emergence treatment of Echinochloa crus-galli (barnyard grass). The conditions noted are these: application rate 1000 g/ha, scale 0 (no damage) to 100 (complete destruction).
Text: as §1, §2, §3, §4

Experiment [5] relates to Abutilon theophrasti (velvetleaf). As to the kind of experiment: Greenhouse pre-emergence treatment of Abutilon theophrasti (velvetleaf). The conditions noted are these: application rate 1000 g/ha, scale 0 (no damage) to 100 (no emergence/complete destruction).
Text: as §1, §5, §3, §4

On to `Cn1nnnc1NC(=O)c1c(F)cc(Cl)c(S(C)(=O)=O)c1Cl` [V.A.-41, 2,4-dichloro-6-fluoro-3-methylsulfonyl-n-(1-methyltetrazol-5-yl)benzamide], for which the “damage [%]” value in experiment [1], in experiment [2] and in experiment [3] was 100% each time.
For the compound `Cn1ncnc1NC(=O)c1cc(F)c(Cl)cc1Cl` [I.A-5], the “damage [%]” value in experiment [1] worked out at 85%; in experiment [4], 90%; in experiment [3], 75%.
In the case of `CSc1c(Cl)cc(F)c(C(=O)Nc2nnnn2C)c1Cl` [V.A-1442, 2,4-dichloro-6-fluoro-3-methylsulfanyl-n-(1-methyltetrazol-5-yl)benzamide], the “damage [%]” value in experiment [5], in experiment [1] and in experiment [3] was 100% throughout.
On to `Cn1ncnc1NC(=O)c1c(F)cc(Cl)cc1Cl` [I.A-1], for which the “damage [%]” value is on record as 100% in experiment [1], 80% in experiment [2] and 100% in experiment [3].
Consider `Cn1ncnc1NC(=O)c1c(F)ccc(Cl)c1Cl` [I.A-1441], for which the entries for the “damage [%]” value in experiment [1], in experiment [2] and in experiment [3] were 100%, 100% and 75%, respectively.
For the compound `Cn1ncnc1NC(=O)c1c(F)cc(Cl)c(S(C)(=O)=O)c1Cl` [I.A-41, 2,4-dichloro-6-fluoro-3-methylsulfonyl-n-(2-methyl-1,2,4-triazol-3-yl)benzamide], the “damage [%]” value came out at 95% in experiment [5], 100% in experiment [1] and 100% in experiment [3].
Consider `Cn1nnnc1NC(=O)c1cc(F)c(Cl)cc1Cl` [V.A-5], for which the “damage [%]” value in experiment [1], in experiment [2] and in experiment [3] was 100% throughout.
